Source: patent publication US20250170237A1, “MURAMYL DIPEPTIDES AND PROCESS FOR PREPARATION THEREOF” (priority 2022, published 2025)

Key:
OVA antigen = test: IgG titer with OVA antigen (indirect ELISA, immunized mice); format: in vivo, BALB/c mice
Experimental: (§1) Adjuvanticity of 15b was evaluated using antigens (OVA, HBsAg, DENV and JEV) in BALB/c mice model—From the immunized mice retro-orbital sampling or retro-orbital blood was collected on 14th and 28th day before sacrifice. Serum was separated by centrifugation at 12,500 rpm for 5 min. Transferred to a clean centrifuge tube and store at −80 until used.
(§2) The plates were coated with antigen in carbonate buffer. Plates were incubated at 4° C. overnight. They were then washed 3 times with PBS/Tween, and non-specific binding sites were blocked by adding 200 μl of blocking solution. Plates were incubated at room temperature for 1 h. Then 3 times wash is done, diluted standards and samples to desired concentrations in blocking solution were added to the plates. Incubate at 37° C. for 1 h or at 4° C. overnight. Plates were washed 3 times with PBS/Tween. Avidin-Horseradish Peroxidase (Av-HRP) was diluted and added. Incubated at room temperature for 30 min. Plates were washed 3 times with PBS/Tween. OPD Substrate was added and plates were incubated at room temperature (4-30 min) for colour development. The colour reaction was stopped by adding 50 μl of stop solution. Optical density (OD) was read at 492 nm.

JEV antigen = test: IgG titer with JEV antigen; format: in vivo, BALB/c mice
Experimental: as §1, §2

[1] = test system: cytokines IL-1, IL-2, IL-4, IFN, IL-6, IL-10, IL-12, TNF; test: Post JEV immunization In vivo cytokine assay; set-up: species or system BALB/c mice
Experimental: ELISA was carried out by Bio Legend capture and detection antibodies. Briefly, 96-well plates were coated with capture antibody dissolved in coating buffer per well incubated overnight at 4° C. Wells were blocked with BSA for 1 h at RT. After blocking, 50 μL/well of serum was added and incubated for 3 h. After washing, Biotinylated secondary antibody was added along with enzyme. Plates were incubated for 1 h at RT. Then plates were washed and TMB substrate solution was added. The reaction was stopped after 30 min with a stopping solution. Absorbance was measured at 450 nm with a plate reader.

splenocytes = test: Post JEV immunization In vivo splenocyte proliferation assay; set-up: species or system BALB/c mice
Experimental: Splenocytes were seeded into 96-well flat-bottom microtiter plates having 1×10^5 cells/well in […] complete RPMI-1640 medium. Plates were incubated at 37° C. with 5% CO2. After 48 h, […] MTT solution (5 mg/mL) was added to each well and left to incubate for next 4 h. Untransformed MTT ([…]) was removed from each well by pipetting. A total of […] of DMSO was added and the absorbance was evaluated in an ELISA reader at 630 nm on the multimode reader (Infinite 200 Pro, Switzerland) after 15 min

[2] = test system: antigens (OVA, HBsAg, DENV and JEV); test: Serum anti-antigens (OVA, HBsAg, DENV and JEV) IgG titer, overall statements; format: in vivo, BALB/c mice; conditions: 15b against Ovalbumin, DEV, 15f against JEV
Experimental: as §1, §2

In vitro Hemolysis assay = conditions: even at higher concentrations

Molecule: CCCCCCCC(=O)OCCCCCCCC(=O)N[C@H]1C(O)O[C@H](CO)[C@@H](O)[C@@H]1O[C@H](C)C(=O)N[C@@H](C)C(=O)N[C@H](CCC(=O)O)C(N)=O (stereo partly drawn) [15 h, (4R)-5-amino-4-((2S)-2-((2R)-2-(((3R,4R,5S,6R)-2,5-dihydroxy-6-(hydroxymethyl)-3-(8-(octanoyloxy)octanamido)tetrahydro-2H-pyran-4-yl)oxy)propanamido)propanamido)-5-oxopentanoic acid]
- IgG titer with OVA antigen (OVA antigen; dose 1 μg): 8750-64000
- IgG titer with OVA antigen (OVA antigen; dose 10 μg): 10000-50000
- IgG titer with OVA antigen (OVA antigen; dose 100 μg): 3750-25000

Molecule: C[C@H](NC(=O)[C@@H](C)O[C@H]1[C@H](O)[C@@H](CO)OC(O)[C@@H]1NC(=O)C1CCC1)C(=O)N[C@H](CCC(=O)O)C(N)=O (stereo partly drawn) [15c, (4R)-5-amino-4-((2S)-2-((2R)-2-(((3R,4R,5S,6R)-3-(cyclobutanecarboxamido)-2,5-dihydroxy-6-(hydroxymethyl)tetrahydro-2H-pyran-4-yl)oxy)propanamido)propanamido)-5-oxopentanoic acid]
- IgG titer with OVA antigen (OVA antigen; dose 1 μg): 25000-102400
- IgG titer with OVA antigen (OVA antigen; dose 10 μg): 10000-85000
- IgG titer with OVA antigen (OVA antigen; dose 100 μg): 5500-75000

Molecule: C[C@H](NC(=O)[C@@H](C)O[C@H]1[C@H](O)[C@@H](CO)OC(O)[C@@H]1NC(=O)C1CCCCC1)C(=O)N[C@H](CCC(=O)O)C(N)=O (stereo partly drawn) [15e, (4R)-5-amino-4-((2S)-2-((2R)-2-(((3R,4R,5S,6R)-3-(cyclohexanecarboxamido)-2,5-dihydroxy-6-(hydroxymethyl)tetrahydro-2H-pyran-4-yl)oxy)propanamido)propanamido)-5-oxopentanoic acid]
- IgG titer with OVA antigen (OVA antigen; dose 1 μg): 1600-12400
- IgG titer with OVA antigen (OVA antigen; dose 10 μg): 1600-41600
- IgG titer with OVA antigen (OVA antigen; dose 100 μg): 12800-96000

Molecule: C[C@H](NC(=O)[C@@H](C)O[C@H]1[C@H](O)[C@@H](CO)OC(O)[C@@H]1NC(=O)C1CCCO1)C(=O)N[C@H](CCC(=O)O)C(N)=O (stereo partly drawn) [15i, (4R)-5-amino-4-((2S)-2-((2R)-2-(((3R,4R,5S,6R)-2,5-dihydroxy-6-(hydroxymethyl)-3-(tetrahydrofuran-2-carboxamido)tetrahydro-2H-pyran-4-yl)oxy)propanamido)propanamido)-5-oxopentanoic acid]
- IgG titer with OVA antigen (OVA antigen; dose 1 μg): 4800-50000
- IgG titer with OVA antigen (OVA antigen; dose 10 μg): 102400-560000
- IgG titer with OVA antigen (OVA antigen; dose 100 μg): 119466-484000

Molecule: CCCCCCCCCCCC(=O)OCCCCCCCC(=O)N[C@H]1C(O)O[C@H](CO)[C@@H](O)[C@@H]1O[C@H](C)C(=O)N[C@@H](C)C(=O)N[C@H](CCC(=O)O)C(N)=O (stereo partly drawn) [15g, (4R)-5-amino-4-((2S)-2-((2R)-2-(((3R,4R,5S,6R)-3-(8-(dodecanoyloxy)octanamido)-2,5-dihydroxy-6-(hydroxymethyl)tetrahydro-2H-pyran-4-yl)oxy)propanamido)propanamido)-5-oxopentanoic acid]
- IgG titer with OVA antigen (OVA antigen; dose 1 μg): 25000-124000
- IgG titer with OVA antigen (OVA antigen; dose 10 μg): 10000-60000
- IgG titer with OVA antigen (OVA antigen; dose 100 μg): 5000-35000

Molecule: C[C@H](NC(=O)[C@@H](C)O[C@H]1[C@H](O)[C@@H](CO)OC(O)[C@@H]1NC(=O)C1CCCC1)C(=O)N[C@H](CCC(=O)O)C(N)=O (stereo partly drawn) [15d, (4R)-5-amino-4-((2S)-2-((2R)-2-(((3R,4R,5S,6R)-3-(cyclopentanecarboxamido)-2,5-dihydroxy-6-(hydroxymethyl)tetrahydro-2H-pyran-4-yl)oxy)propanamido)propanamido)-5-oxopentanoic acid]
- IgG titer with OVA antigen (OVA antigen; dose 1 μg): 3200-12400
- IgG titer with OVA antigen (OVA antigen; dose 10 μg): 3200-41600
- IgG titer with OVA antigen (OVA antigen; dose 100 μg): 6400-84000

Molecule: CCCCCCCCCCCCCC(=O)OCCCCCCCC(=O)N[C@H]1C(O)O[C@H](CO)[C@@H](O)[C@@H]1O[C@H](C)C(=O)N[C@@H](C)C(=O)N[C@H](CCC(=O)O)C(N)=O (stereo partly drawn) [15f, (4R)-5-amino-4-((2S)-2-((2R)-2-(((3R,4R,5S,6R)-2,5-dihydroxy-6-(hydroxymethyl)-3-(8-(tetradecanoyloxy)octanamido)tetrahydro-2H-pyran-4-yl)oxy)propanamido)propanamido)-5-oxopentanoic acid]
- IgG titer with OVA antigen (OVA antigen; dose 1 μg): 8000-25400
- IgG titer with OVA antigen (OVA antigen; dose 10 μg): 5000-41600
- IgG titer with OVA antigen (OVA antigen; dose 100 μg): 200000-960000
- IgG titer with JEV antigen (JEV antigen; dose 5 μG (Table 21)): 80000-160000
- IgG titer with JEV antigen (JEV antigen; dose 20 μG (Table 21)): 160000-640000
- IgG titer with JEV antigen (JEV antigen; dose 50 μG (Table 21)): 640000-9560000
- TNF ([1]; dose 5 μG (Table 24)): 624 to 654 pg/mL
- IL-1 ([1]; dose 5 μG (Tables 22, 24)): 745 to 845 pg/mL
- IL-2 ([1]; dose 5 μG (Tables 22, 24)): 41 to 52 pg/mL
- IL-4 ([1]; dose 5 μG (Tables 22, 24)): 134 to 155 pg/mL
- IL-10 ([1]; dose 5 μG (Tables 22, 24)): 243 to 294 pg/mL
- IL-12 ([1]; dose 5 μG (Tables 22, 24)): 124 to 147 pg/mL
- TNF ([1]; dose 20 μG (Table 24)): 898 to 942 pg/mL
- IL-1 ([1]; dose 20 μG (Tables 22, 24)): 1059 to 1124 pg/mL
- IL-2 ([1]; dose 20 μG (Tables 22, 24)): 52 to 64 pg/mL
- IL-4 ([1]; dose 20 μG (Tables 22, 24)): 138 to 146 pg/mL
- IL-10 ([1]; dose 20 μG (Tables 22, 24)): 398 to 421 pg/mL
- IL-12 ([1]; dose 20 μG (Tables 22, 24)): 175 to 194 pg/mL
- TNF ([1]; dose 50 μG (Table 24)): 1024 to 1124 pg/mL
- IL-1 ([1]; dose 50 μG (Tables 22, 24)): 1487 to 1634 pg/mL
- IL-2 ([1]; dose 50 μG (Tables 22, 24)): 69 to 76 pg/mL
- IL-4 ([1]; dose 50 μG (Tables 22, 24)): 148 to 164 pg/mL
- IL-10 ([1]; dose 50 μG (Tables 22, 24)): 424 to 487 pg/mL
- IL-12 ([1]; dose 50 μG (Tables 22, 24)): 136 to 147 pg/mL
- Splenocyte proliferation, Con A (splenocytes; dose 5 μG (Table 25)): 125-141
- Splenocyte proliferation, JEV (splenocytes; dose 5 μG (Table 25)): 139-147
- Splenocyte proliferation, LPS (splenocytes; dose 5 μG (Table 25)): 124-134
- Splenocyte proliferation, Con A (splenocytes; dose 20 μG (Table 25)): 134-142
- Splenocyte proliferation, JEV (splenocytes; dose 20 μG (Table 25)): 149-162
- Splenocyte proliferation, LPS (splenocytes; dose 20 μG (Table 25)): 128-137
- Splenocyte proliferation, Con A (splenocytes; dose 50 μG (Table 25)): 245-264
- Splenocyte proliferation, LPS (splenocytes; dose 50 μG (Table 25)): 184-192
- antibody titer, conclusion in words [2]: significant antibody titer
- toxicity and hemolysis, conclusion in words (In vitro Hemolysis assay): non-toxic and non-hemolytic

B1: OVA (protein, UniProt P01012 2-386, looked up)
Ovalbumin: GSIGAASMEFCFDVFKELKVHHANENIFYCPIAIMSALAMVYLGAKDSTRTQINKVVRFDKLPGFGDSIEAQCGTSVNVHSSLRDILNQITKPNDVYSFSLASRLYAEERYPILPEYLQCVKELYRGGLEPINFQTAADQARELINSWVESQTNGIIRNVLQPSSVDSQTAMVLVNAIVFKGLWEKAFKDEDTQAMPFRVTEQESKPVQMMYQIGLFRVASMASEKMKILELPFASGTMSMLVLLPDEVSGLEQLESIINFEKLTEWTSSNVMEERKIKVYLPRMKMEEKYNLTSVLMAMGITDVFSSSANLSGISSAESLKISQAVHAAHAEINEAGREVVGSAEAGVDAASVSEEFRADHPFLFCIKHIATNAVLFFGRCVSP
- IgG titer with OVA antigen (OVA antigen; OVA 100 μg alone): 6400-12800
